Source: US5463078A, “Anisomycin derivatives and anticancer agents, antifungal agents and antiprotozoan agents containing the same” (Ajinomoto Co., Inc., priority 1993, dated 1995)
Converted amounts (≈) assume the structure as drawn. Like-named read-outs stand apart in the source and are kept apart here.

Columns and labels:
FM3A cells = experiment: Inhibitory activity on proliferation of FM3A culture; assay type: cell-based, mouse; conditions: for IC50: Mus musculus, read-out: IC50 (50% proliferation inhibition concentration)
Method: Experiment 2: Measurement of inhibitory activity of anisomycin derivatives on proliferation of FM3A culture
The proliferation-inhibiting activity of the present compounds against a culture of FM3A cells derived from mouse mammary tumor was investigated. Into each well of a 96-well microplate was added 50 μl of 10^5 cells/ml of FM3A cells, which had been suspended in a Dulbecco-modified Eagle culture medium containing 10% fetal calf serum. The IC50 (50% proliferation inhibition concentration) was calculated based on the number of surviving cells for a prescribed concentration of the test compounds.

protein synthesis = conditions: in words; J. Biol. Chem., vol. 242, p. 3226, 1967; cited from earlier work
Saccharomyces cereviceae = experiment: Antifungal activity: growth inhibition of Saccharomyces cereviceae; assay type: cell-based; conditions: potato dextrose agar, 25° C., 7 days
Method: (§1) Experiment 3: Measurement of antifungal activity of anisomycin derivatives
(§2) The growth-inhibiting activity of the present compounds against various fungi was investigated. Into each well of a 6-well microplate, 0.3 ml of a solution of each test compound and 2.7 ml of a sterile solution of potato dextrose agar culture medium (kept at a temperature of about 50° C.) were added. After solidification, 5 μl from each suspension of test cells (yeast: approx. 10^3 cells/ml; mold: approx. 10^4 spores/ml) was inoculated onto the above-mentioned agar medium, and the cultures were maintained at 25° C. for 7 days. The growth of the test cells was observed, and the minimum concentration (MIC value) was determined at which complete inhibition of growth occurred. The test compounds were used after adjustment to 1 mg/ml with dimethylsulfoxide and dilution with distilled water.

[1] = tested on: P388 leukemia tumor cells; experiment: Antitumor effect of anisomycin derivatives in vivo (P388 leukemia, CDF1 mice); set-up: species or system mouse; conditions: P388 i.p. in CDF1 mice; 10 mg/kg i.p. once a day for 10 days
Method: Experiment 4: Antitumor effect of anisomycin derivatives in vivo
Into one group of 5 CDF1 mice, 1×10^6 P388 leukemia tumor cells were intraperitoneally transplanted. Beginning the next day, a 10 mg/kg portion of the test compound dissolved in 0.2 ml of a solution containing an equal volume of dimethylsulfoxide and saline was administered to the mice intraperitoneally once a day for 10 days. The increase in the life span of the mice in days (ILS) was determined according to the following equation: [formula]

Mucor rouxii = experiment: Antifungal activity: growth inhibition of Mucor rouxii; assay type: cell-based; conditions: potato dextrose agar, 25° C., 7 days
Method: as §1, §2

Aspergillus fumigatus = experiment: Antifungal activity: growth inhibition of Aspergillus fumigatus; assay type: cell-based; conditions: potato dextrose agar, 25° C., 7 days
Method: as §1, §2

Candida albicans = experiment: Antifungal activity: growth inhibition of Candida albicans; assay type: cell-based; conditions: potato dextrose agar, 25° C., 7 days
Method: as §1, §2

Stability in the blood = conditions: in words
Cryptococcus neoformans = experiment: Antifungal activity: growth inhibition of Cryptococcus neoformans; assay type: cell-based; conditions: potato dextrose agar, 25° C., 7 days
Method: as §1, §2

[2] = Measurement of stability of anisomycin derivatives in rat plasma; assay type: in vitro ADME
Method: Experiment 1: Measurement of stability of anisomycin derivatives in rat plasma
To investigate the stability of the present compounds in rat plasma, the half-life thereof was measured. For the measurement, an approximately 0.25 mg portion of each test compound was dissolved in 150 μl of rat plasma, and the solution was incubated at 37° C. Aliquots were taken over specific periods of time, and the amount of residual anisomycin derivative was measured by HPLC to determine the half-life thereof.

[3] = 168 h, read-out: MIC (minimum concentration at which complete inhibition of growth occurred)

SMILES: COc1ccc(CC2NCC(O)C2OC(C)=O)cc1 (single isomer, unassigned) [Anisomycin, anisomycin]
- IC50 (50% proliferation inhibition concentration) (FM3A cells): 0.02 µg/mL (≈ 0.0754 µM)
- cytotoxic activity (protein synthesis): strong cytotoxic activity due to its inhibitory effect on protein synthesis
- MIC (minimum concentration at which complete inhibition of growth occurred) (Saccharomyces cereviceae): 12.5 µg/mL
- ILS (increase in the life span of the mice) [1]: 0%
- MIC (minimum concentration at which complete inhibition of growth occurred) (Mucor rouxii): > 100 µg/mL
- MIC (minimum concentration at which complete inhibition of growth occurred) (Aspergillus fumigatus): > 100 µg/mL
- MIC (minimum concentration at which complete inhibition of growth occurred) (Candida albicans): 100 µg/mL
- stability in the blood (Stability in the blood): extremely unstable in the blood and is rapidly hydrolyzed
- MIC (minimum concentration at which complete inhibition of growth occurred) (Cryptococcus neoformans): 25 µg/mL
- Half-life ([2]; rat plasma, 37° C., residual amount by HPLC, read-out: Half-life): 0.05 h

SMILES: CNC(=O)OC1C(O)CNC1Cc1ccc(OC)cc1 (stereo not shown) [Example 1, 3-O-methylcarbamoyl-deacetylanisomycin]
- IC50 (FM3A cells): 0.06 µg/mL (≈ 0.214 µM)
- Half-life [2]: No decomposition

SMILES: COc1ccc(CC2NCC(O)C2OC(N)=O)cc1 (stereo not shown) [Example 2, 3-O-carbamoyldeacetylanisomycin]
- Half-life [2]: No decomposition

SMILES: COc1ccc(CC2NCC(O)C2OC(=O)NCCCc2ccccc2)cc1 (stereo not shown) [Example 5, 3-O-(3-phenylpropyl)carbamoyldeacetylanisomycin]
- Half-life [2]: No decomposition

SMILES: COc1ccc(CC2NCC(O)C2OC(=O)Nc2ccccc2)cc1 (stereo not shown) [Example 11, 3-O-phenylcarbamoyldeacetylanisomycin]
- Half-life [2]: No decomposition

SMILES: COc1ccc(CC2NCC(OC(C)=O)C2OC(N)=O)cc1 (stereo not shown) [Example 15, 4-O-acetyl-3-O-carbamoylanisomycin]
- IC50 (FM3A cells): 0.039 µg/mL (≈ 0.126 µM)
- Half-life ([2]; rat, plasma): 6.67 h

SMILES: CCCCCC(=O)OC1CNC(Cc2ccc(OC)cc2)C1OC(N)=O (stereo not shown) [Example 16, 4-O-hexanoyl-3-O-carbamoyldeacetylanisomycin]
- IC50 (FM3A cells): 0.039 µg/mL (≈ 0.107 µM)

SMILES: CCCCCCC(=O)OC1CNC(Cc2ccc(OC)cc2)C1OC(N)=O (stereo not shown) [Example 17, 4-O-heptanoyl-3-O-carbamoyldeacetylanisomycin]
- IC50 (FM3A cells): 0.03 µg/mL (≈ 0.0793 µM)

SMILES: CCCCCCCCCCCC(=O)OC1CNC(Cc2ccc(OC)cc2)C1OC(N)=O (stereo not shown) [Example 18, 4-O-dodecanoyl-3-O-carbamoyldeacetylanisomycin]
- IC50 (FM3A cells): < 0.02 µg/mL
- MIC (Saccharomyces cereviceae; [3]): 25 µg/mL (≈ 55.7 µM)
- ILS (increase in the life span of the mice) [1]: 44%
- MIC (Mucor rouxii; Amylomyces rouxii, 168 h, read-out: MIC (minimum concentration at which complete inhibition of growth occurred)): 50 µg/mL (≈ 111 µM)
- MIC (Aspergillus fumigatus; [3]): 50 µg/mL (≈ 111 µM)
- MIC (Candida albicans; [3]): 50 µg/mL (≈ 111 µM)
- MIC (Cryptococcus neoformans; [3]): 3.1 µg/mL (≈ 6.91 µM)

SMILES: COCOC1C(O)CNC1Cc1ccc(OC)cc1 (stereo not shown) [Example 22, 3-O-methoxymethyldeacetylanisomycin]
- IC50 (FM3A cells): 0.062 µg/mL (≈ 0.232 µM)
- Half-life [2]: No decomposition
